Laboratory results taken from patent publication US8501787B2, “Compounds for the inhibition of angiogenesis and use thereof” (Shire Orphan Therapies GmbH, priority 2004, dated 2013).
Like-named read-outs stand apart in the source and are kept apart here.

Target: T1, integrin alpha5beta1 (Homo sapiens, UniProt P05556+P08648)
T1 construct: The integrin alpha5beta1 extracellular domain Fc-fusion was expressed and purified; made in house
Experiment: Alpha5beta1-Fibronectin binding assay (competitive ELISA)
Experimental: The optimal concentrations of integrin and ligand were selected from ELISA binding studies with variable concentrations of both to obtain optimal signal noise ratio for further studies. IC50 studies were performed with fixed concentration of ligand and integrin and a serial dilution of inhibitor. The plates were measured with SpectraMax Plus reader (Molecular Devices). The resulting inhibition curves were analyzed using SoftMaxPro 4.0 software, the turning point describes the IC50 value.
Fibronectin and Vitronectin were purchased from Sigma, fibrinogen from Calbiochem. (EMD Biosciences, Darmstadt, Germany) The integrin alpha5beta1 extracellular domain Fc-fusion was expressed and purified as described in (Coe, 2001, JBC, 276, 35854). Integrins alphavbeta3 and alphavbeta5 were purchased from Chemicon (Chemicon Europe, Germany) and alphaIIbbeta3 form Kordia (Kordia Life Science, Leiden, Netherlands)
Fibronectin was diluted with coating buffer (15 mM Na2CO3, 35 mM NaHCO3, pH9.6) and coated with 100 μL/well to Nunc-Immuno maxisorp plates (Nalge Nunc Europe Ltd) over night at 4° C. After discarding the coating solution plates were washed 3 times with buffer 1 ([…], pH7.6, 150 mM NaCl, 1 mM […], 1 mg/mL BSA) and blocked with 100 μL blocking buffer (3% BSA in PBS 0.1% Tween20) for 1 hour at room temperature. After washing the blocked plates (3 times) with buffer 1, integrin (50 μL) and either inhibitor (serial dilution in buffer 1) or buffer 1 (50 μL) were added to the wells and incubated for one hour at RT. Plates were then washed (3 times) with buffer 1 and incubated with 100 μL of anti-human-Fc-HRP antibody conjugate (Sigma-Aldrich, Taufkirchen, Germany) in buffer 1 for 1 hour at RT. After additional washing steps (3 times) with buffer 1 50 μL of HRP substrate solution TMB (Seramun, Germany) were added to the wells. Colour development was stopped after 3-5 minutes with 50 μL 1M H2SO4. The developed colour was measured at 450 nm and analyzed as described above.

[1] = method of section 1.1, read-out: Group (binding activities to integrin alpha5beta1)
[2] = inhibition of integrin binding to fibronectin, read-out: IC50 alpha5beta1 in nM

SMILES | IC50 [1] | IC50 [2]
Cc1cc(C)c(S(=O)(=O)N[C@@H](CNC(=O)CO[C@@H]2C[C@@H](CNc3ccccn3)N(C(=O)C(F)(F)C(F)(F)C(F)(F)C(F)(F)C(F)(F)C(F)(F)C(F)(F)F)C2)C(=O)O)c(C)c1 [Compound 63, 3-{2-[1-(2,2,3,3,4,4,5,5,6,6,7,7,8,8,8-Pentadecafluoro-octanoyl)-5-(pyridin-2-ylaminomethyl)-pyrrolidin-3-yloxy]-acetylamino}-2-(2,4,6-trimethyl-benzenesulfonylamino)-propionic acid] | > 500 nM | 
Cc1cc(C)c(S(=O)(=O)N[C@@H](CNC(=O)CO[C@@H]2C[C@@H](CNc3ccccn3)N(C(=S)Nc3ccc(-c4c5ccc(=O)cc-5oc5cc(O)ccc45)c(C(=O)O)c3)C2)C(=O)O)c(C)c1 [Compound 61, 5-{[4-{[2-Carboxy-2-(2,4,6-trimethyl-benzenesulfonylamino)-ethylcarbamoyl]-methoxy}-2-(pyridin-2-ylaminomethyl)-pyrrolidine-1-carbothioyl]-amino}-2-(6-hydroxy-3-oxo-3H-xanthen-9-yl)-benzoic acid] | 10 to 500 nM | 
C#CCOC(=O)N1C[C@H](OCC(=O)NC[C@H](NS(=O)(=O)c2c(C)cc(C)cc2C)C(=O)O)C[C@H]1CNc1ccccn1 [Compound 44, 4-{[2-Carboxy-2-(2,4,6-trimethyl-benzenesulfonylamino)-ethylcarbamoyl]-methoxy}-2-(pyridin-2-ylaminomethyl)-pyrrolidine-1-carboxylic acid prop-2-ynyl ester] | < 10 nM | 5.8 nM
CC(C)(C)C(=O)N[C@@H](CNC(=O)CO[C@@H]1C[C@@H](CNc2ccccn2)N(C(=O)OCc2ccccc2)C1)C(=O)O [Compound 117, 4-{[2-Carboxy-2-(2,2-dimethyl-propionylamino)-ethylcarbamoyl]-methoxy}-2-(pyridin-2-ylaminomethyl)-pyrrolidine-1-carboxylic acid benzyl ester] | < 10 nM | 
Cc1ccc(C[C@@H](CC(=O)O)NC(=O)CO[C@@H]2C[C@@H](CNc3ccccn3)N(C(=O)OCc3ccccc3)C2)cc1 [Compound 152, 4-[(1-Carboxymethyl-2-p-tolyl-ethylcarbamoyl)-methoxy]-2-(pyridin-2-ylaminomethyl)-pyrrolidine-1-carboxylic acid benzyl ester] | > 500 nM | 
N[C@@H](CNC(=O)CO[C@@H]1C[C@@H](CNc2ccccn2)N(C(=O)OCc2ccccc2)C1)C(=O)O [Compound 81, 4-[(2-Amino-2-carboxy-ethylcarbamoyl)-methoxy]-2-(pyridin-2-ylaminomethyl)-pyrrolidine-1-carboxylic acid benzyl ester] | > 500 nM | 
Cc1cc(C)c(S(=O)(=O)N[C@@H](CNC(=O)CO[C@@H]2C[C@@H](CNc3ncccn3)N(C(=O)OCc3ccccc3)C2)C(=O)O)c(C)c1 [Compound 130, 4-{[2-Carboxy-2-(2,4,6-trimethyl-benzenesulfonylamino)-ethylcarbamoyl]-methoxy}-2-(pyrimidin-2-ylaminomethyl)-pyrrolidine-1-carboxylic acid benzyl ester] | > 500 nM | 
COc1ccnc(NC[C@@H]2C[C@@H](OCC(=O)NC[C@H](NC(=O)C3(C)CCCCC3)C(=O)O)CN2C(=O)CC(C)(C)C)c1 [Compound 148, 3-(2-{1-(3,3-Dimethyl-butyryl)-5-[(4-methoxy-pyridin-2-ylamino)-methyl]-pyrrolidin-3-yloxy}-acetylamino)-2-[(1-methyl-cyclohexanecarbonyl)-amino]-propionic acid] | < 10 nM | 
Cc1cc(C)c(S(=O)(=O)N[C@@H](CNC(=O)CO[C@@H]2C[C@@H](CNc3ccccn3)N(C(=O)OCC(C)C)C2)C(=O)O)c(C)c1 [Compound 41, 4-{[2-Carboxy-2-(2,4,6-trimethyl-benzenesulfonylamino)-ethylcarbamoyl]-methoxy}-2-(pyridin-2-ylaminomethyl)-pyrrolidine-1-carboxylic acid isobutyl ester] | < 10 nM | 
CS(=O)(=O)NC(CNC(=O)COC1CC(CNc2ccccn2)N(C(=O)OCc2ccccc2)C1)C(=O)O (stereo not drawn) [Compound 69, 4-[(2-Carboxy-2-methanesulfonylamino-ethylcarbamoyl)-methoxy]-2-(pyridin-2-ylaminomethyl)-pyrrolidine-1-carboxylic acid benzyl ester] | > 500 nM | 
Cc1cc(C)c(S(=O)(=O)N[C@@H](CNC(=O)CO[C@@H]2C[C@@H](CNc3ccccn3)N(C(=O)NC3CCCC3)C2)C(=O)O)c(C)c1 [Compound 20, 3-{2-[1-Cyclopentylcarbamoyl-5-(pyridin-2-ylaminomethyl)-pyrrolidin-3-yloxy]-acetylamino}-2-(2,4,6-trimethyl-benzenesulfonylamino)-propionic acid] | < 10 nM | 6.6 nM
Cc1ccc(CNC(=O)N2C[C@H](OCC(=O)NC[C@H](NS(=O)(=O)c3c(C)cc(C)cc3C)C(=O)O)C[C@H]2CNc2ccccn2)cc1 [Compound 25, 3-{2-[1-(4-Methyl-benzylcarbamoyl)-5-(pyridin-2-ylaminomethyl)-pyrrolidin-3-yloxy]-acetylamino}-2-(2,4,6-trimethyl-benzenesulfonylamino)-propionic acid] | 10 to 500 nM | 18.1 nM
